# “And” between values parts separate entries of the source, which are not always exact repeats. Identical values can stand only once. The source made the active and inactive calls.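 How the source made its calls: active means median TrxR activity remaining at the top dose below 80%; inactive means the rest.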
# Target: Thioredoxin reductase 1, cytoplasmic (Rattus norvegicus) (UniProt O89049)
# Assay: rat TrxR-driven insulin reduction blockade – biochemical, rat TrxR1, insulin turbidity, dry powder, counter-screen for PDI inhibitor project, dose response (AID 652269)
# Conditions: Trx/TrxR/NADPH insulin reduction, turbidity OD650; for TrxR activity remaining % (active compounds read low): at 33.3 µM
TrxR activity remaining % (active compounds read low),outcome,Structure (SMILES)
100% (inactive) and 94% (inactive),–,CCOC(=O)C1(CCOc2ccccc2)CCN(Cc2ccc(O)c(Cl)c2)CC1
100% (inactive),–,CCOC(=O)c1c(CN2CCN(CCO)CC2)n(-c2ccccc2)c2cc(Br)c(O)cc12
100% (inactive),–,CCOC(=O)C1(CCOc2ccccc2)CCN(Cc2ccc(OC)c(Cl)c2)CC1
100% (inactive),–,CC(C)(C)OC(=O)C1(CCOc2ccccc2)CCN(Cc2ccc(O)c(Cl)c2)CC1
100% (inactive),–,CCOC(=O)C1(CCOc2ccccc2)CCN(C(=O)c2ccc(O)c(Cl)c2)CC1
100% (inactive),–,O=C(NC1CCCC1)C1(CCOc2ccccc2)CCN(Cc2ccc(O)c(Cl)c2)CC1
–,inactive,O=C(Nc1ccccc1)C1(CCOc2ccccc2)CCN(Cc2ccc(O)c(Cl)c2)CC1
100% (inactive),–,CCOC(=O)C1(CCOc2ccccc2)CCN(Cc2ccc(O)cc2)CC1
100% (inactive),–,CC(C)OC(=O)C1(CCOc2ccccc2)CCN(Cc2ccc(O)c(Cl)c2)CC1
97% (inactive),–,C/C1=C\C[C@H](OC(=O)c2ccc(O)cc2)/C(C)=C/[C@@H](O)C(C)(C)CCC1
